Experimental data: ChEMBL document CHEMBL4387741, “Optimization of novel reversible Bruton's tyrosine kinase inhibitors identified using Tethering-fragment-based screens” (Bioorg Med Chem, 2019)

Key:
[1] = biological target: Serine/threonine-protein kinase 16 (Homo sapiens) (UniProt O75716); test: Inhibition of wild-type human partial length STK16 (G11 to I305 residues) expressed in bacterial expression system at 1 uM by Kinomescan method relative to control
[2] = biological target: Tyrosine-protein kinase TXK (Homo sapiens) (UniProt P42681); test: Inhibition of wild-type human partial length TXK (L238 to W527 residues) expressed in bacterial expression system at 1 uM by Kinomescan method relative to control
[3] = biological target: Cyclin-dependent kinase 16 (Homo sapiens) (UniProt Q00536); test: Inhibition of wild-type human partial length PCTK1 (G160 to A474 residues) expressed in mammalian expression system at 1 uM by Kinomescan method relative to control
[4] = biological target: Casein kinase II subunit alpha (Homo sapiens) (UniProt P68400); test: Inhibition of wild-type human full length CSNK2A1 (M1 to Q391 residues) expressed in mammalian expression system at 1 uM by Kinomescan method relative to control
[5] = Protein binding in rat plasma assessed as unbound fraction at 2 uM by rapid equilibrium dialysis method; format: ADME, cell-free
[6] = test system: Phosphatidylinositol 4,5-bisphosphate 3-kinase catalytic subunit alpha isoform (Homo sapiens), P42336 [M1043I]; test: Inhibition of human partial length PIK3CA M1043I mutant (R108 to N1068 residues) expressed in mammalian expression system at 1 uM by Kinomescan method relative to control
[7] = biological target: Macrophage colony-stimulating factor 1 receptor (Homo sapiens) (UniProt P07333); test: Inhibition of wild-type human partial length CSF1R (I564 to S939 residues) expressed in bacterial expression system at 1 uM by Kinomescan method relative to control
[8] = biological target: Ribosomal protein S6 kinase alpha-1 (Homo sapiens) (UniProt Q15418); test: Inhibition of wild-type human partial length N-terminal RSK1 Kinase domain 1 (M1 to E388 residues) expressed in bacterial expression system at 1 uM by Kinomescan method relative to control
[9] = biological target: Activin receptor type-1B (Homo sapiens) (UniProt P36896); test: Inhibition of wild-type human ACVR1B (S187 to I505 residues) expressed in bacterial expression system at 1 uM by Kinomescan method relative to control
[10] = biological target: Inhibitor of nuclear factor kappa-B kinase subunit beta (Homo sapiens) (UniProt O14920); test: Inhibition of wild-type human full length IKK-beta (M1 to S756 residues) expressed in mammalian expression system at 1 uM by Kinomescan method relative to control
[11] = biological target: SRSF protein kinase 1 (Homo sapiens) (UniProt Q96SB4); test: Inhibition of wild-type human full length SRPK1 (M1 to S655 residues) expressed in bacterial expression system at 1 uM by Kinomescan method relative to control
[12] = biological target: Serine/threonine-protein kinase PRP4 homolog (Homo sapiens) (UniProt Q13523); test: Inhibition of wild-type human partial length PRP4 (D657 to I1007 residues) expressed in bacterial expression system at 1 uM by Kinomescan method relative to control
[13] = biological target: Cyclin-G-associated kinase (Homo sapiens) (UniProt O14976); test: Inhibition of wild-type human partial length GAK (G13 to Y338 residues) expressed in bacterial expression system at 1 uM by Kinomescan method relative to control
[14] = biological target: Serine/threonine-protein kinase N2 (Homo sapiens) (UniProt Q16513); test: Inhibition of wild-type human partial length PKN2 (E634 to C984 residues) expressed in bacterial expression system at 1 uM by Kinomescan method relative to control
[15] = biological target: Leukocyte tyrosine kinase receptor (Homo sapiens) (UniProt P29376); test: Inhibition of wild-type human partial length LTK (P422 to S744 residues) expressed in bacterial expression system at 1 uM by Kinomescan method relative to control
[16] = test system: Tyrosine-protein kinase ABL1 (Homo sapiens), P00519 [H396P]; test: Inhibition of human non-phosphorylated ABL1 H396P mutant (S229 to K512 residues) expressed in mammalian expression system at 1 uM by Kinomescan method relative to control
[17] = biological target: Serine/threonine-protein kinase WNK4 (Homo sapiens) (UniProt Q96J92); test: Inhibition of wild-type human partial length WNK4 (A31 to D461 residues) expressed in mammalian expression system at 1 uM by Kinomescan method relative to control
[18] = biological target: Homeodomain-interacting protein kinase 4 (Homo sapiens) (UniProt Q8NE63); test: Inhibition of wild-type human partial length HIPK4 (M1 to V384 residues) expressed in bacterial expression system at 10 uM by Kinomescan method relative to control
[19] = biological target: Ephrin type-B receptor 2 (Homo sapiens) (UniProt P29323); test: Inhibition of wild-type human partial length EPHB2 (I597 to L902 residues) expressed in bacterial expression system at 10 uM by Kinomescan method relative to control
[20] = biological target: Protein kinase C eta type (Homo sapiens) (UniProt P24723); test: Inhibition of wild-type human partial length PRKCH (S324 to P683 residues) expressed in bacterial expression system at 10 uM by Kinomescan method relative to control
[21] = test system: Epidermal growth factor receptor (Homo sapiens), P00533 [UNDEFINED MUTATION]; test: Inhibition of human partial length EGFR L747-T751del/Sins mutant expressed in bacterial expression system at 10 uM by Kinomescan method relative to control
[22] = biological target: Testis-specific serine/threonine-protein kinase 1 (Homo sapiens) (UniProt Q9BXA7); test: Inhibition of wild-type human full length TSSK1B (M1 to Q367 residues) expressed in bacterial expression system at 10 uM by Kinomescan method relative to control
[23] = biological target: Activin receptor type-2A (Homo sapiens) (UniProt P27037); test: Inhibition of wild-type human ACVR2A (V171 to T499 residues) expressed in bacterial expression system at 10 uM by Kinomescan method relative to control
[24] = test system: Phosphatidylinositol 4,5-bisphosphate 3-kinase catalytic subunit alpha isoform (Homo sapiens), P42336 [I800L]; test: Inhibition of human partial length PIK3CA I800L mutant (R108 to N1068 residues) expressed in mammalian expression system at 10 uM by Kinomescan method relative to control
[25] = biological target: Calcium/calmodulin-dependent protein kinase type II subunit delta (Homo sapiens) (UniProt Q13557); test: Inhibition of wild-type human partial length CAMK2D (M1 to E329 residues) expressed in bacterial expression system at 10 uM by Kinomescan method relative to control
[26] = biological target: Serine/threonine-protein kinase 4 (Homo sapiens) (UniProt Q13043); test: Inhibition of wild-type human full length MST1 (M1 to F487 residues) expressed in bacterial expression system at 10 uM by Kinomescan method relative to control
[27] = biological target: Maternal embryonic leucine zipper kinase (Homo sapiens) (UniProt Q14680); test: Inhibition of wild-type human full length MELK (M1 to V651 residues) expressed in bacterial expression system at 10 uM by Kinomescan method relative to control

Serine/threonine-protein kinase N2 (Homo sapiens), sequence (Q16513 whole entry, looked up, the tested form may be a part): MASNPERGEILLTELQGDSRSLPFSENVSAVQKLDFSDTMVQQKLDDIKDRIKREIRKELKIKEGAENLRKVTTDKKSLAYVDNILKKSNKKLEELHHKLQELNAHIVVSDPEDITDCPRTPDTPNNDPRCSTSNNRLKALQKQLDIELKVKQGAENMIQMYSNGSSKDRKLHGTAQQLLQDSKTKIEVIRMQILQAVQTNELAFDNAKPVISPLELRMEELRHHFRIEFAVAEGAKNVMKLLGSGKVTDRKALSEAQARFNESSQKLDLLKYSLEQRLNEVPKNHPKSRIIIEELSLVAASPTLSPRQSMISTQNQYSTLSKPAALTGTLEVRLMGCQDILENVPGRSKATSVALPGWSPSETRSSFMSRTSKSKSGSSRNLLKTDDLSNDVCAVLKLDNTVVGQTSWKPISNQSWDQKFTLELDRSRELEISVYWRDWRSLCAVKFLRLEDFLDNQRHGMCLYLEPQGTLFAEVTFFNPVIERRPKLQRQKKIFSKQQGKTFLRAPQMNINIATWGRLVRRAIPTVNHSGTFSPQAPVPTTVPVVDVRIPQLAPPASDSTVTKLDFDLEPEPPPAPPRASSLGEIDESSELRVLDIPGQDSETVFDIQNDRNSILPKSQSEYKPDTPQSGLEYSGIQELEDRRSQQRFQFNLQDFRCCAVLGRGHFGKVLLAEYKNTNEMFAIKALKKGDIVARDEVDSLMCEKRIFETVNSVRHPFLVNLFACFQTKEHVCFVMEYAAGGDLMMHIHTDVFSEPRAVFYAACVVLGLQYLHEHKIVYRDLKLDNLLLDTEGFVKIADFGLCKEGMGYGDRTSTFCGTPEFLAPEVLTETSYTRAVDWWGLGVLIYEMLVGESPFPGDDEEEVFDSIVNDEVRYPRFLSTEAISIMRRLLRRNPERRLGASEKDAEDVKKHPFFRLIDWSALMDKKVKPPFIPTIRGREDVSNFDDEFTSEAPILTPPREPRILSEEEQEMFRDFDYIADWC
Protein kinase C eta type (Homo sapiens), sequence (P24723 whole entry, the tested form may be a part): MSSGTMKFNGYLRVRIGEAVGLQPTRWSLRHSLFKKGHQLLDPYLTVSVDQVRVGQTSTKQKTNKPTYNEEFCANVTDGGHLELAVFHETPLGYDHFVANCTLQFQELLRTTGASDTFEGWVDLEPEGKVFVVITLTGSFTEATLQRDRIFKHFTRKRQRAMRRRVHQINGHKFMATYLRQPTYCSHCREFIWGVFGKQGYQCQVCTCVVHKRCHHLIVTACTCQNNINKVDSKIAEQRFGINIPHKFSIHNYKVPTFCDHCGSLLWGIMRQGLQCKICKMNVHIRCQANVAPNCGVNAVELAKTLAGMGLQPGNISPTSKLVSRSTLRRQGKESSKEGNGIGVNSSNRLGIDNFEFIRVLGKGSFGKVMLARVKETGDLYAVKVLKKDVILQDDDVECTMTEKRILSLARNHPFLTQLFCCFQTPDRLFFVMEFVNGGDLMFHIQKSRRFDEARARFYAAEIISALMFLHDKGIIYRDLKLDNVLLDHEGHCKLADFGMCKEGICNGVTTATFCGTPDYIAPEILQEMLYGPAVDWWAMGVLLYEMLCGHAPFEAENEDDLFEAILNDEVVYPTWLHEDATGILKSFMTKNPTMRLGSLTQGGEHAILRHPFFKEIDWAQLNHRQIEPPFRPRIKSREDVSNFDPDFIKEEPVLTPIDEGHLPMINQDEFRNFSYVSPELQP
Cyclin-G-associated kinase (Homo sapiens), sequence (O14976 whole entry, the tested form may be a part): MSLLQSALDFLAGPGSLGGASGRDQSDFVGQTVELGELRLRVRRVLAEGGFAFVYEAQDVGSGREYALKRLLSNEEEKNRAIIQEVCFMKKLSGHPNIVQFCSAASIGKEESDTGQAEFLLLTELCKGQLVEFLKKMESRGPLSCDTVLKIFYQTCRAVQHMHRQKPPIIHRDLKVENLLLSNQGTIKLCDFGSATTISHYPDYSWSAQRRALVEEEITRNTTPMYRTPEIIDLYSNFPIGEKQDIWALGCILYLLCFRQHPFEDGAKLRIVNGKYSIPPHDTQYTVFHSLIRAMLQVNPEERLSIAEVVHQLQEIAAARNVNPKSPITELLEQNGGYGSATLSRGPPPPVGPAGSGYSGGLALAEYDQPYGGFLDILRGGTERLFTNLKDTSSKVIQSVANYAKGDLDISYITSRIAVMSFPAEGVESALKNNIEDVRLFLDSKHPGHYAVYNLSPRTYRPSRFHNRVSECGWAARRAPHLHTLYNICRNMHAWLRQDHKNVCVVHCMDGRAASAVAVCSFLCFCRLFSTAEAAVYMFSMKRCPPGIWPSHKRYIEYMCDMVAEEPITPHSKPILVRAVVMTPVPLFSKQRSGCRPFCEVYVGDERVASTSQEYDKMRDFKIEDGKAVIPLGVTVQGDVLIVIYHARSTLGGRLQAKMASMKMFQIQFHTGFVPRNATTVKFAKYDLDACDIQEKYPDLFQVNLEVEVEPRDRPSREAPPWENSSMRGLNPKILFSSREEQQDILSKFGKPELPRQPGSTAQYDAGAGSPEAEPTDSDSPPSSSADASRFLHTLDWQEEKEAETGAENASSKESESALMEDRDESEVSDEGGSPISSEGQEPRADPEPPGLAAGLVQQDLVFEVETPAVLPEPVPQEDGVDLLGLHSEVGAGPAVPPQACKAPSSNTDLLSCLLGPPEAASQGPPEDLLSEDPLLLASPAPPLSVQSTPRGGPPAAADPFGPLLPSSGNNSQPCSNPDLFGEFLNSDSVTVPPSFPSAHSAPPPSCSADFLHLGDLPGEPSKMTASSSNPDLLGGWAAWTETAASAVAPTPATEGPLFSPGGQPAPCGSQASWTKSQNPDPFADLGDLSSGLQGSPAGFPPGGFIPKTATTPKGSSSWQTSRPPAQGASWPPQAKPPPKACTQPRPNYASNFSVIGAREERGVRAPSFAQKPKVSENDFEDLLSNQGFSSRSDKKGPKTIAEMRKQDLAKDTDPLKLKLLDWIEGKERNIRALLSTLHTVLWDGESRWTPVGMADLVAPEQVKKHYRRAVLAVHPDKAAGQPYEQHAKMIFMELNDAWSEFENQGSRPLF
Cyclin-dependent kinase 16 (Homo sapiens), sequence (Q00536 whole entry, the tested form may be a part): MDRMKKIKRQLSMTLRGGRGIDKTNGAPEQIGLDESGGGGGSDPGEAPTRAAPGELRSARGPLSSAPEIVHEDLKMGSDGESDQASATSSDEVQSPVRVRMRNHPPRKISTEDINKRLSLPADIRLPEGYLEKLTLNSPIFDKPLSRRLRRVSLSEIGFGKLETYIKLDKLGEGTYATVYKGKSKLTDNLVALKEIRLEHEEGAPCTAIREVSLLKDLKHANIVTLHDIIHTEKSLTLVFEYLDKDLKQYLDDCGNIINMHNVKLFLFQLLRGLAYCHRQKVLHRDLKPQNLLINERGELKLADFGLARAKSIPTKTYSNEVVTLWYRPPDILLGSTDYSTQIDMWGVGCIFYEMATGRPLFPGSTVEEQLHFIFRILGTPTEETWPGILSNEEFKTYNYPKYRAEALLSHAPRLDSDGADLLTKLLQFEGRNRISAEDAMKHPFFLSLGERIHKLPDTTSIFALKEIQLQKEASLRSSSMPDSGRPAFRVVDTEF
Phosphatidylinositol 4,5-bisphosphate 3-kinase catalytic subunit alpha isoform (Homo sapiens), P42336 [M1043I], sequence (P42336 whole entry M1043I, the tested form may be a part, canonical isoform): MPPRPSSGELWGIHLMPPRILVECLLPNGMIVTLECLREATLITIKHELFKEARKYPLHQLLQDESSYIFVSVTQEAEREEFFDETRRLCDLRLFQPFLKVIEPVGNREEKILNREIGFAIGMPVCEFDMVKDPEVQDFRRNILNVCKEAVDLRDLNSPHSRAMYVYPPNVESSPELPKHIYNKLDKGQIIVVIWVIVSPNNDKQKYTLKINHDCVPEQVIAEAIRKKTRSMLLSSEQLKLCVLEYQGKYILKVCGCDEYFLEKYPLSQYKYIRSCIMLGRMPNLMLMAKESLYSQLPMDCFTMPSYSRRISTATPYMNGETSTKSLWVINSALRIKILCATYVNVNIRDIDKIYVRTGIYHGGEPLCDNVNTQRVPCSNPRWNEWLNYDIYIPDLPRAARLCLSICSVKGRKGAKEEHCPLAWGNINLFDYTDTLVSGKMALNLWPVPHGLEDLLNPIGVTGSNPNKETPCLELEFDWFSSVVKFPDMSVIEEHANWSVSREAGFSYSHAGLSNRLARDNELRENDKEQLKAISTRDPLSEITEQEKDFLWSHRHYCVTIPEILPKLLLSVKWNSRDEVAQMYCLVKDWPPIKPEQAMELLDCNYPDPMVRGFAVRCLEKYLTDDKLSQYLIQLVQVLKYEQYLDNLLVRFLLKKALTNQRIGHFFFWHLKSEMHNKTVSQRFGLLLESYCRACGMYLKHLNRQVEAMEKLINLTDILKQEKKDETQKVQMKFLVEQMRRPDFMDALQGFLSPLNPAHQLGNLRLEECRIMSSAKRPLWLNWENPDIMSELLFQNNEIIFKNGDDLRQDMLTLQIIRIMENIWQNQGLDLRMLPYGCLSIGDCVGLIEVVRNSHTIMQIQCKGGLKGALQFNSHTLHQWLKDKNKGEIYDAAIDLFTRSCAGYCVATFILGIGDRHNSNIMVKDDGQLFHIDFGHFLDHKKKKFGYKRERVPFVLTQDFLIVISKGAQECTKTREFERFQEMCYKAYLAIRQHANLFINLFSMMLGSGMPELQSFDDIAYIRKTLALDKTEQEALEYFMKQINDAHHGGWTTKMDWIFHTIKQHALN
Calcium/calmodulin-dependent protein kinase type II subunit delta (Homo sapiens), sequence (Q13557 whole entry, the tested form may be a part): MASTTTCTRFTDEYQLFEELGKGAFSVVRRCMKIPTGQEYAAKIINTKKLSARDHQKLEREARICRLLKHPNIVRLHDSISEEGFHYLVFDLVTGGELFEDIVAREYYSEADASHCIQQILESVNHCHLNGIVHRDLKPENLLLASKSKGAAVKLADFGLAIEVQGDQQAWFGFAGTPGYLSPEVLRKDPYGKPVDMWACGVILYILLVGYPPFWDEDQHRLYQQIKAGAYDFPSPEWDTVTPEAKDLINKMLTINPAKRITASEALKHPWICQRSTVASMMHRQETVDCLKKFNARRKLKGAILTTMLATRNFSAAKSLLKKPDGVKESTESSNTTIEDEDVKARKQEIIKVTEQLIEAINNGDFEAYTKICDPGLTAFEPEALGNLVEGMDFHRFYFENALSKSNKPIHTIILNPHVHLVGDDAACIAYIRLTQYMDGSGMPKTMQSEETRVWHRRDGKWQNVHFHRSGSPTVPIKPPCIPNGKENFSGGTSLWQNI

Q: With `O=C(Nc1cccc([C@@H]2CN(c3ncnc4[nH]ccc34)CCN2CCO)c1)Nc1c(F)cccc1N1CCCC1` as the compound, how does the inhibition [1] read?
A: 82%

Q: And the inhibition [2]?
A: 63%

Q: And the inhibition [3]?
A: 80%

Q: And the inhibition [4]?
A: 93%

Q: What about the Fu [5] of the same compound?
A: 0.13%

Q: And the inhibition [6]?
A: 94%

Q: What about the inhibition [7] of the same compound?
A: 67%

Q: And the inhibition [8]?
A: 90%

Q: What about the inhibition [9] of the same compound?
A: 83%

Q: And the inhibition [10]?
A: 74%

Q: And the inhibition [11]?
A: 37%

Q: What about the inhibition [12] of the same compound?
A: 92%

Q: What about the inhibition [13] of the same compound?
A: 96%

Q: And the inhibition [14]?
A: 75%

Q: And the inhibition [15]?
A: 100%

Q: And the inhibition [16]?
A: 96%

Q: And the inhibition [17]?
A: 96%

Q: What does the source list for `O=C(Nc1cccc([C@H]2CCCN(c3ncnc4[nH]ccc34)C2)c1)Nc1ccccc1N1CCCC1`?
A: inhibition [18]: 100%; inhibition [19]: 69%; inhibition [20]: 71%; inhibition [21]: 88%; inhibition [22]: 100%; inhibition [23]: 100%; inhibition [24]: 34%; inhibition [25]: 100%; inhibition [26]: 47%; inhibition [27]: 36%
